Laboratory results as given in US11998665B2, “Biodegradable ureteral stents, methods and uses thereof” (ASSOCIATION FOR THE ADVANCEMENT OF TISSUE ENGINEERING AND …, priority 2016, dated 2024).
Values after ≈ are worked out from the molar mass of the structure shown. Where two headings read alike, the source gives them in different places.

Key:
T24 cancer cells = conditions: cited from earlier work
[1] = tested on: T24 cells (human urothelial carcinoma cell line); test: MTT cell viability, free anti-cancer drugs, IC50 determination in T24 cells; assay type: cell-based
Procedure: (§1) In an embodiment, the present disclosure used a human urothelial carcinoma cell line, T24 (ATCC, U.S.A.) as a cancer cell line to model the urothelial carcinoma and human umbilical vein endothelial cells, HUVEC, (ATCC, U.S.A.) as a control, non-cancerous cell line. The T24 cell line and HUVEC cells were cultured in RPMI-1640 and EGM™-2 medium, respectively, with (10% fetal bovine serum (FBS), 1 mM L-glutamine and 1% penicillin/streptomyocin), Cells were maintained at 37° C. in a humidified 5% CO2 atmosphere.
(§2) In an embodiment, in vitro efficacy of anti-cancer drugs against T24 cells and HUVEC cells-IC50 determination. The cytotoxicity of paclitaxel, epirubicin, doxorubicin and gemcitabine was evaluated by determining the viability of T24 and HUVEC cells after exposure to medium containing the free drug at a range of concentrations from 0.01 to 2000 ng/ml. Free drugs in medium were prepared by first dissolving the anticancer drugs in DMSO (50 mg/ml) and this solution was then diluted in culture medium to achieve the desired concentration. A standard MTT cell proliferation assay (CellTiter 96® Aqueous One Solution Cell Proliferation Assay) was used to test cell viability and was performed on both cell lines to determine the half maximal inhibitory concentration (1050) of each drug. 5000 cells per well were seeded in a 96-well plate with 100 μl medium for T24 and HUVEC cells. After incubation for 24 h, the medium in each well was aspirated off and the cells were exposed to 100 μl of fresh medium containing the drugs at various concentrations for 4 h and 72 h. The cells after 4 h treatment were further cultured for 72 h in fresh (drug-free) medium. After that, the culture medium in each well was replaced by 100 μl of medium and 20 μl of CellTiter 96® AQueous One Solution Reagent, followed by 4 h incubation at 37° C. A latex rubber extract was used as negative control for cell death; while cell culture medium was used as positive control. Cell viability was quantified by UV-spectroscopy, reading the formazan absorbance at 490 nm in a microplate reader (SpectraMax i3, Molecular Devices, USA). Each sample formulation and control was tested using 12 replicates.
(§3) In an embodiment, the 1050 was determined from the fitting of the curve of cell viability, measured by MTT and the drug concentration. The fitting was performed using GraphPad software (GraphPad Prism 6.00 software, San Diego, USA).
(§4) In an embodiment, the effect of the anti-cancer drugs (IC50) when in contact with T24 and HUVEC cells was investigated by a cell viability test, namely the MTT assay. From this, the IC50 was calculated for each of the four drugs in each of the two cell lines. In this case, IC50 is a measure of the concentration needed to inhibit cell survival, and is routinely used to specify the in vitro potency of a drug (Sebaugh, 2011). The T24 cell line was chosen as a muscle invasive urothelial cancer and the HUVEC cells were used as non-cancerous control cells. The cytotoxicity evaluation was carried out either after 4 h or 72 h of exposure of the cells to the free drugs at different concentrations (FIGS. 5 A and B). […] In FIGS. 5 (A and B) it is possible to see, for both cell types the trend of concentration-dependent cytotoxicity. These are similar, in all cases and as it would be expected the 72 h exposure present a higher killing efficacy. Comparing the results between the two cells it is possible to conclude that the cancer cells are much more sensitive to the anti-cancer drugs compared with the HUVEC cells.

[2] = Quantity of drug impregnated in stents by scCO2 (UV-spectroscopy after degradation in AUS); assay type: physicochemical; conditions: for Quantity of drug impregnated by scCO2: 90 min, 100 bar, 40° C.; for increase in the impregnation yield when ethanol was used as a co-solvent: DrugEtOH versus pure scCO2; for % loaded: amount of drug impregnated by scCO2 in BUS
Procedure: In an embodiment, a supercritical CO2 impregnation of anti-cancer drugs was performed, in the biodegradable ureteral stents (BUS) of the present disclosure. The were biodegradable ureteral stents prepared were placed in high-pressure vessel with anti-cancer drugs (10 mg) according to FIG. 2. The anti-cancer drugs were impregnated in the stents with and without the presence of a co-solvent. The scCO2 impregnation conditions used were 100 bar at 40° C. and 90 min. Carbon dioxide was liquefied and pumped to the desired pressure using a membrane pump (MCPV-71, Haskel, Germany). Impregnation took place in batch mode for 90 min followed by fast depressurization of the system. When a co-solvent was employed, 10% (v/v) ethanol was used. A commercial non-degradable ureteral stent (Biosoft® duo, Porges, Coloplast) was impregnated with same drugs at the same conditions with co-solvent, to be used as a control. To enhance the mechanical properties of the stent a PCL coating was applied. To evaluate the effect of coating on the release of the drugs the condition BUS+Co-Solvent was prepared twice and one of this batches was coated with PCL resin.
The anticancer drugs impregnation yield (I) was calculated from Eq. (1): I(%)=mdrug/mstent+mdrug×100 Eq. (1) where mstent is the polymer mass at the beginning of the process and the mdrug is the mass of the respective anticancer drug released after complete degradation of the stents in AUS. Anti-cancer drugs concentration was calculated from a calibration curve prepared from standard solutions. The samples were analyzed by UV-spectroscopy using a microplate reader (SpectraMax i3, Molecular Devices, USA) at the maximum absorbance for each drug (227 nm for PA, 254 nm for EP and DOX and 268 nm for GEM). All the experiments were performed in triplicate.
In an embodiment, impregnation efficiency of anti-cancer drugs in the biodegradable ureteral stents (BUS) was determined as a function of mass (μg) of anti-cancer drugs per mass (mg) of the polymer. In the DrugEtOH conditions, the amount of anti-cancer drug impregnated in the stents is higher, as it would be expected due to the co-solvent effect of ethanol in the enhancement of drug the solubility in CO2. The amount of impregnated paclitaxel in pure scCO2 (PAbio) was 0.046 μg mg-1, whereas those in PAEtOH condition was […] (0.067 μg mg-1). A similar percentage was reported by Yoda et al. (Yoda et al., 2011) in which the authors report the impregnation of paclitaxel in an amorphous poly(DL-lactic acid) (PDLLA) matrix. The amount of paclitaxel impregnated by Yoda et al. in PDLLA was 2-3 times higher compared with the alginate/gelatin matrix obtained in this work. This can be justified by the higher affinity of the drug-CO2 solution in the hydrophobic PDLLA matrix (Kazarian, 2000). Furthermore, PDLLA may also have greater swelling in the presence of scCO2 than the alginate/gelatin polymer blend (Cooper, 2000; Yoda et al., 2011). […] In the case of the Biosoft® duo, Porges, Coloplast stents the amount of drug impregnated is 6-times lower compared with BUS impregnated with paclitaxel under the same conditions. The lower amount of drug impregnated can be related with lower swelling ability of the polymeric matrix of the commercial stent in scCO2 and/or by lower affinity of the drugs with composition material of the Biosoft® duo, Porges, Coloplast stent.

[3] = tested on: HUVEC cells (human umbilical vein endothelial cells); test: MTT cell viability, free anti-cancer drugs, IC50 determination in HUVEC cells; assay type: cell-based
Procedure: as §1, §2, §3, §4

[4] = T-24, 4 h exposure then 72 h in drug-free medium
[5] = DrugCom: commercial non-degradable stent with co-solvent
[6] = DrugETOH: BUS + 10% ethanol co-solvent
[7] = Drugbio: BUS without co-solvent
[8] = 4 h exposure then 72 h in drug-free medium

Row | Structure (SMILES) | IC50 (T24 cancer cells; doxorubicin, T24 cancer cells, Lu et al., 2015a) [µg/mL] | IC50 (T24 cancer cells; doxorubicin, T24 cancer cells, Yu et al., 2015) [µg/mL] | IC50 [1, 4] [µg/mL] | IC50 ([1]; T-24, 72 h exposure) [µg/mL] | Quantity of drug impregnated by scCO2 [2, 5] [μgdrug/mgpolymer] | Quantity of drug impregnated by scCO2 [2, 6] [μgdrug/mgpolymer] | increase in the impregnation yield when ethanol was used as a co-solvent [2] [%] | Quantity of drug impregnated by scCO2 [2, 7] [μgdrug/mgpolymer] | IC50 [3, 8] [µg/mL] | IC50 ([3]; 72 h exposure) [µg/mL] | Quantity of drug impregnated by scCO2 ([2]; DrugETOH: BUS + 10% ethanol co-solvent, listed as gemcitabine) [μgdrug/mgpolymer] | % loaded [2] [%] | IC50 (T24 cancer cells; paclitaxel, Hadaschik et al., 2008) [µg/mL]
1 | COc1cccc2c1C(=O)c1c(O)c3c(c(O)c1C2=O)C[C@@](O)(C(=O)CO)C[C@@H]3O[C@H]1C[C@H](N)[C@H](O)[C@H](C)O1 [Doxorubicin, doxorubicin] | 0.0116 (≈ 0.0213 µM) | 4 (≈ 7.36 µM) | 187 ± 5.18 (≈ 344 µM) | 29.3 ± 10 (≈ 53.9 µM) | 0.208 | 3.748 | 12 | 3.297 | 2150 ± 58.2 (≈ 3950 µM) | 647 ± 21.4 (≈ 1190 µM) | – | – | –
2 | COc1cccc2c1C(=O)c1c(O)c3c(c(O)c1C2=O)C[C@@](O)(C(=O)CO)C[C@@H]3O[C@H]1C[C@H](N)[C@@H](O)[C@H](C)O1 [Epirubicin, epirubicin] | – | – | 67 ± 2.34 (≈ 123 µM) | 15.7 ± 1.02 (≈ 29 µM) | 0.118 | 1.779 | 15 | 1.498 | 2050 ± 33.2 (≈ 3770 µM) | 139 ± 13.6 (≈ 256 µM) | – | – | –
3 | Nc1ccn([C@@H]2O[C@H](CO)[C@@H](O)C2(F)F)c(=O)n1 [Gemcitabine, gemcitabine] | – | – | 99 ± 1.29 (≈ 376 µM) | 0.89 ± 0.27 (≈ 3.38 µM) | 2.312 | 19.572 | 8 | 18.183 | 413.6 ± 2.68 (≈ 1570 µM) | 237 ± 16.7 (≈ 901 µM) | 19.57 | 2 | –
4 | CC(=O)O[C@H]1C(=O)[C@@]2(C)[C@H]([C@H](OC(=O)c3ccccc3)[C@]3(O)C[C@H](OC(=O)[C@H](O)[C@@H](NC(=O)c4ccccc4)c4ccccc4)C(C)=C1C3(C)C)[C@]1(OC(C)=O)CO[C@@H]1C[C@@H]2O [Paclitaxel, paclitaxel] | – | – | 0.282 (≈ 0.33 µM) | 0.0073 (≈ 0.00855 µM) | 0.014 | 0.067 | – | 0.046 | 0.85 (≈ 0.995 µM) | 0.502 (≈ 0.587 µM) | – | 0.01 | 0.00285 (≈ 0.00334 µM)
